Measured values from US20260007621A1, “Pharmaceutical Combinations for Treatment” (priority 2022, published 2026).
Entries after “also recorded” stand apart in the source; their conditions may differ.

Experiments:
[1] = system: therapeutic relief of cough, cold and allergy symptoms; assay: Inventor's findings on relief from GFN or antihistamines combined with IBF+APAP (and PE); no method given; type: in vivo, human; conditions: for therapeutic relief expressed as GFN amount: 'it is suggested'
Experimental: A normal 4 hourly dosage of DM and GFN is 20 mg and 400 mg respectively.

[2] = 6.25 mg PE administered with 500 mg APAP; cited from earlier work
[3] = in vivo; cited from earlier work
[4] = system: recurring coughs, sneezing, headache, runny nose, pain, cold, fever, sore throat, sinus pressure; assay: Clinical study: one subject rates relief from new pharmaceutical combinations against previous medication; type: in vivo, human; conditions: 2.5 mg cetirizine, 5 mg bilastine, 2.5 mg loratadine or 30 mg fexofenadine, each dose after 3 hours; versus 10, 20, 10 or 120 mg once
Experimental: The subject had recurring coughs, sneezing, headache, runny nose, pain, cold, fever, sore throat, sinus pressure etc. They took medication including DM+GFN combination as well as antihistamines to cure it, namely: • a. Mucinex Expectorant Tablets (600 mg GFN/dose): 1 dose per 12 hours; • b. […] Labixten (20 mg Bilastine/dose): 1 dose per 24 hours. […] On each recurrence of cough and other symptoms a new pharmaceutical combination was given. The subject would then provide feedback on the improvement of their symptoms and rate the performance of the pharmaceutical composition in comparison to their previous medication experience.

Structure (SMILES): COc1ccccc1OCC(O)CO (stereo not shown) [GFN, guaifenesin]
- therapeutic relief expressed as GFN amount ([1]; 100 mg GFN taken with 175-200 mg IBF and 275-575 mg APAP): 143 mg GFN
- therapeutic relief expressed as GFN amount ([1]; 200 mg GFN taken with 175-200 mg IBF and 275-575 mg APAP): 286 mg GFN
- increase in effectiveness of GFN when combined with IBF+APAP ([1]; in vivo): about 45%
- GFN dose that, combined with IBF+APAP, gives the relief of a normal 4 hourly dosage of 20 mg DM and 400 mg GFN ([1]; without DM): 280 mg

Structure (SMILES): CNC[C@H](O)c1cccc(O)c1 [PE, Phenylephrine]
- PE dosage of similar effect [2]: ~10 mg
- effectiveness compared with PSE [3]: not as effective as PSE

Structure (SMILES): CCOCCn1c(C2CCN(CCc3ccc(C(C)(C)C(=O)O)cc3)CC2)nc2ccccc21 [bilastine]
- quarter dose administered 4 times daily versus normal full 24-hour dose of the same ingredient at once [4]: better effect; also recorded: performed therapeutically better

Structure (SMILES): O=C(O)COCCN1CCN(C(c2ccccc2)c2ccc(Cl)cc2)CC1 (stereo not shown) [cetirizine]
- quarter dose administered 4 times daily versus normal full 24-hour dose of the same ingredient at once [4]: better effect; also recorded: performed therapeutically better

Structure (SMILES): CC(C)(C(=O)O)c1ccc(C(O)CCCN2CCC(C(O)(c3ccccc3)c3ccccc3)CC2)cc1 (stereo not shown) [fexofenadine]
- quarter dose administered 4 times daily versus normal full 24-hour dose of the same ingredient at once [4]: better effect; also recorded: performed therapeutically better

Structure (SMILES): CCOC(=O)N1CCC(=C2c3ccc(Cl)cc3CCc3cccnc32)CC1 [loratadine]
- quarter dose administered 4 times daily versus normal full 24-hour dose of the same ingredient at once [4]: better effect; also recorded: performed therapeutically better
